In US20210387990A1, “METHOD FOR PRODUCING DIMETHOXYBENZENE COMPOUND” (TAIHO PHARMACEUTICAL CO., LTD., priority 2018, published 2021):

Test: solubility in solvents
Format: physicochemical
Conditions: in water, highly water-soluble organic solvents, and highly fat-soluble organic solvents; free form

solubility: easily soluble
SMILES: COc1cc(C#Cc2nn([C@H]3CCNC3)c3ncnc(N)c23)cc(OC)c1 [compound B, (S)-3-((3,5-dimethoxyphenyl)ethynyl)-1-(pyrrolidin-3-yl)-1H-pyrazolo[3,4-d]pyrimidin-4-amine]
